For orientation: bioavailability means the share of a dose that reaches the circulation, judged against a reference dose that is usually intravenous. A lower bioavailability goes with little systemic uptake. For orientation: logD means the decadic logarithm of the distribution of all forms, ionised or not, between an organic phase and buffer at a given pH. Low readings indicate lower lipophilicity, high ones higher lipophilicity. For orientation: pKa means the pH at which an ionisable group is half protonated. Higher therefore signals a group that holds its proton tightly.

Data on 34 molecules can be found in ChEMBL document CHEMBL1133765, “QSAR model for drug human oral bioavailability” (J Med Chem, 2000).

Structures are written as SMILES.

Series [1] in a line: clinical. The following applies: human, in vivo, po.
The nature of series [2]: physchem. Particulars: octanol/water.
For series [3] the following is noted: octanol/water.
Series [4] is described as follows: physchem.
Series [5] in a line: physchem. The following applies: octanol/water, pH 6.5.
For series [6] the following is noted: octanol/water. The source holds these as a separate data set.
A short description of series [7]: clinical. Particulars: human, in vivo, po. The source holds these as a separate data set.

In “clinical [1]” (F), `CNS(=O)(=O)Cc1ccc2[nH]cc(CCN(C)C)c2c1` displayed a bioavailability of less than 20%. In “physchem [2]” (pH 6.5, logD), this molecule yielded a pH-dependent lipophilicity (logD) of -2.07. Moreover, the “delta logD” value in series [3] was -0.9. In “physchem [4]”, this molecule yielded a pKa of 9.4.

For `CC(=O)Nc1ccc(O)cc1` [ACETAMINOPHEN], the logD in the series “physchem [5]” was 0.51. Moreover, the “delta logD” value in series [6] is on record as 0. For the same molecule, the bioavailability in the series “clinical [7]” came out at 79%.

As for `CNC1=Nc2ccc(Cl)cc2C(c2ccccc2)=[N+]([O-])C1` [CHLORDIAZEPOXIDE], the bioavailability in the series “clinical [1]” was greater than 80%. The molecule further returned a logD in “physchem [2]” (pH 6.5) of 2.43. Further, the “delta logD” value in series [3] is -0.01. This molecule also yielded a pKa in “physchem [4]” of 4.8.

`NS(=O)(=O)c1cc(C2(O)NC(=O)c3ccccc32)ccc1Cl` (centres undefined) [CHLORTHALIDONE] had a pH-dependent lipophilicity (logD) in the series “physchem [5]” of 0.22. In series [6], the “delta logD” value was 0. This molecule yielded a bioavailability in the series “clinical [7]” of 79%.

Regarding `CN/C(=N/CCSCc1nc[nH]c1C)NC#N` [CIMETIDINE], the logD in “physchem [5]” was -0.08. The molecule further registered a bioavailability in “clinical [7]” of 79%.

`Clc1cccc(Cl)c1N=C1NCCN1` [CLONIDINE] came in with a bioavailability in the series “clinical [1]” (F) greater than 80%. This molecule came in with a log distribution coefficient (logD) in “physchem [2]” (pH 6.5, logD) of 0.06. The “delta logD” value in series [3] is -0.82. This molecule also yielded a pKa in “physchem [4]” of 8.

Regarding `CC(CCc1ccc(O)cc1)NCCc1ccc(O)c(O)c1` (centres undefined) [DOBUTAMINE], the bioavailability in “clinical [1]” (F) was less than 20%. Moreover, the pH-dependent lipophilicity (logD) in “physchem [2]” (pH 6.5, logD) was -0.48. The “delta logD” value in series [3] is -0.9. For the same molecule, in “physchem [4]”, the pKa is 9.5.

Take `NCCc1ccc(O)c(O)c1` [DOPAMINE]: in “clinical [1]” (F), the bioavailability is less than 20%. This molecule also showed a pH-dependent lipophilicity (logD) in the series “physchem [2]” (pH 6.5, logD) of -3.37. Besides, the “delta logD” value in series [3] is -0.9. Moreover, the pKa in the series “physchem [4]” is 8.9.

The molecule `CSc1ccc(C(=O)c2[nH]c(=O)[nH]c2C)cc1` [ENOXIMONE] gave a logD in “physchem [5]” of 2.32. Further, the “delta logD” value in series [6] worked out at 0. For the same molecule, in the series “clinical [7]”, the bioavailability was found to be 79%.

Take `CNC[C@H](O)c1ccc(O)c(O)c1` [EPINEPHRINE]: the bioavailability in “clinical [1]” (F) is less than 20%. Moreover, in the series “physchem [2]” (pH 6.5, logD), the logD is -3.49. The “delta logD” value in series [3] is -0.9. Further, in “physchem [4]”, the pKa worked out at 9.9.

In “clinical [1]”, `CCNCC(O)c1cccc(O)c1` (centres undefined) [ETILEFRINE] gave a bioavailability of 49%. The molecule further gave a logD in “physchem [2]” (pH 6.5) of -2.86. Also, in series [3], the “delta logD” value is reported as -0.9. Also, the pKa in the series “physchem [4]” stood at 9.8.

`CCNC(C)Cc1cccc(C(F)(F)F)c1` (centres undefined) [FENFLURAMINE] had a bioavailability in “clinical [1]” of 79%. In “physchem [2]” (pH 6.5), this molecule gave a logD of 0.4. Besides, the “delta logD” value in series [3] is given as -0.9. The molecule further gave a pKa in “physchem [4]” of 10.

`CCOC(=O)c1ncn2c1CN(C)C(=O)c1cc(F)ccc1-2` [FLUMAZENIL] yielded a bioavailability in “clinical [1]” of less than 20%. For the same molecule, the logD in “physchem [2]” (pH 6.5) is 1.01. Also, in series [3], the “delta logD” value is -0.14. This molecule also displayed a pKa in “physchem [4]” of 6.2.

In turn, `O=c1[nH]cc(F)c(=O)[nH]1` [FLUOROURACIL] came in with a bioavailability in “clinical [1]” of 49%. The molecule further registered a logD in the series “physchem [2]” (pH 6.5) of -0.89. Further, in series [3], the “delta logD” value is reported as 0.1. For the same molecule, the pKa in “physchem [4]” worked out at 8.

For the molecule `COCCCC/C(=N\OCCN)c1ccc(C(F)(F)F)cc1` [FLUVOXAMINE], the bioavailability in “clinical [7]” was 79%. The molecule further registered a pKa in “physchem [4]” of 9.5.

`CC(C)NCC(O)c1ccc(O)c(O)c1` (centres undefined) [ISOPROTERENOL] displayed a bioavailability in “clinical [1]” (F) of 49%. The molecule further registered a log distribution coefficient (logD) in “physchem [2]” (pH 6.5, logD) of -2.76. The “delta logD” value in series [3] was -0.88. This molecule also registered a pKa in the series “physchem [4]” of 8.7.

The molecule `CN(C)CC(Oc1ccccc1)Oc1ccccc1` [MEDIFOXAMINE] displayed a bioavailability in “clinical [1]” (F) of 49%. This molecule gave a logD in the series “physchem [2]” (pH 6.5, logD) of -0.43. For the same molecule, the “delta logD” value in series [3] is on record as -0.89. The molecule further gave a pKa in the series “physchem [4]” of 9.2.

Molecule `CC(C)NCC(O)c1cc(O)cc(O)c1` (centres undefined) [METAPROTERENOL] gave a bioavailability in “clinical [1]” (F) of less than 20%. The molecule also displayed a logD in the series “physchem [2]” (pH 6.5, logD) of -2.72. In addition, the “delta logD” value in series [3] is given as -0.9. The molecule also returned a pKa in “physchem [4]” of 9.3.

In turn, `CN1CCN2c3ncccc3Cc3ccccc3C2C1` (centres undefined) [MIRTAZAPINE] had a bioavailability in “clinical [1]” (F) of 79%. The molecule also displayed a log distribution coefficient (logD) in the series “physchem [2]” (pH 6.5, logD) of 2.01. Besides, the “delta logD” value in series [3] is on record as -0.55. Also, the pKa in the series “physchem [4]” amounted to 7.1.

`Oc1ccc2c3c1O[C@H]1[C@@H](O)CC[C@@]4(O)[C@@H](C2)N(CC2CCC2)CC[C@]314` [NALBUPHINE] had a bioavailability in “clinical [1]” of less than 20%. Further, the logD in “physchem [2]” (pH 6.5) is -0.63. In addition, the “delta logD” value in series [3] is given as -0.88. Besides, the pKa in the series “physchem [4]” was 8.7.

Turning to `COC(=O)C1=C(C)NC(C)=C(C(=O)OCCN(C)Cc2ccccc2)C1c1cccc([N+](=O)[O-])c1` (centres undefined) [NICARDIPINE], the bioavailability in “clinical [1]” (F) was determined as 49%. In addition, the pH-dependent lipophilicity (logD) in “physchem [2]” (pH 6.5, logD) came out at 1.18. Besides, the “delta logD” value in series [3] is on record as -0.72. The pKa in the series “physchem [4]” amounted to 7.6.

On to `CNC(=C[N+](=O)[O-])NCCSCc1csc(CN(C)C)n1` [NIZATIDINE], for which the bioavailability in the series “clinical [1]” (F) was greater than 80%. The molecule also showed a logD in the series “physchem [2]” (pH 6.5, logD) of -0.08. The “delta logD” value in series [3] is -0.38. The molecule further gave a pKa in the series “physchem [4]” of 6.8.

In the series “clinical [1]” (F), `Cc1nccn1CC1CCc2c(c3ccccc3n2C)C1=O` (centres undefined) [ONDANSETRON] came in with a bioavailability of 79%. This molecule also yielded a pH-dependent lipophilicity (logD) in the series “physchem [2]” (pH 6.5, logD) of 1.13. The “delta logD” value in series [3] is -0.61. The pKa in the series “physchem [4]” stood at 7.3.

Molecule `CNC[C@H](O)c1cccc(O)c1` [PHENYLEPHRINE] had a bioavailability in the series “clinical [1]” (F) of 49%. Besides, the logD in “physchem [2]” (pH 6.5, logD) was -3.02. Also, in series [3], the “delta logD” value was -0.9. The pKa in “physchem [4]” turned out to be 9.8.

`O=C1NC(=O)C(c2ccccc2)(c2ccccc2)N1` [PHENYTOIN]: in “clinical [1]” (F), the bioavailability was greater than 80%. Moreover, the pH-dependent lipophilicity (logD) in “physchem [2]” (pH 6.5, logD) was 2.47. Moreover, the “delta logD” value in series [3] is on record as 0.1. For the same molecule, in “physchem [4]”, the pKa was determined as 8.

For `CC(C)NCC(O)COc1cccc2[nH]ccc12` (centres undefined) [PINDOLOL], the “delta logD” value in series [6] is on record as -0.88. The molecule also showed a bioavailability in “clinical [7]” of 79%. This molecule also displayed a pKa in “physchem [4]” of 8.8.

In “clinical [1]” (F), `COc1cc(NC(C)CCCN)c2ncccc2c1` (centres undefined) [PRIMAQUINE] returned a bioavailability of 79%. The logD in “physchem [2]” (pH 6.5, logD) is -2.19. Also, in series [3], the “delta logD” value was -0.9. This molecule also gave a pKa in the series “physchem [4]” of 10.3.

`CN1CCN(CCCN2c3ccccc3Sc3ccc(Cl)cc32)CC1` [PROCHLORPERAZINE] came in with a bioavailability in the series “clinical [1]” (F) of less than 20%. The molecule further gave a logD in “physchem [2]” (pH 6.5, logD) of 2.51. Also, the “delta logD” value in series [3] was -0.69. Moreover, the pKa in “physchem [4]” came to 7.5.

Consider `CNCCCC1c2ccccc2C=Cc2ccccc21` [PROTRIPTYLINE], for which the bioavailability in the series “clinical [1]” (F) is greater than 80%. This molecule displayed a log distribution coefficient (logD) in “physchem [2]” (pH 6.5, logD) of 0.34. Also, the “delta logD” value in series [3] is recorded as -0.84. In “physchem [4]”, this molecule yielded a pKa of 8.2.

For the molecule `CCN1CCC[C@H]1CNC(=O)c1c(O)c(Cl)cc(Cl)c1OC` [RACLOPRIDE], the bioavailability in the series “clinical [7]” came out at 79%. The pKa in “physchem [4]” stood at 9.2.

`Nc1nc2ccc(OC(F)(F)F)cc2s1` [RILUZOLE]: the bioavailability in the series “clinical [7]” was 79%. In addition, the pKa in “physchem [4]” was determined as 6.5.

In “clinical [1]”, `Oc1ccc(C(O)C2CCCCN2)cc1O` (centres undefined) [RIMITEROL] came in with a bioavailability of less than 20%. The molecule also gave a logD in the series “physchem [2]” (pH 6.5) of -3.13. For the same molecule, in series [3], the “delta logD” value is recorded as -0.9. For the same molecule, the pKa in “physchem [4]” worked out at 9.9.

In “clinical [1]” (F), `CN(C/C=C/C#CC(C)(C)C)Cc1cccc2ccccc12` [TERBINAFINE] returned a bioavailability of 49%. Moreover, in “physchem [2]” (pH 6.5, logD), the log distribution coefficient (logD) was determined as 3.3. Moreover, the “delta logD” value in series [3] is recorded as -0.86. This molecule also gave a pKa in the series “physchem [4]” of 8.5.

In the series “clinical [1]” (F), `O=c1n(CCCN2CCN(c3cccc(Cl)c3)CC2)nc2ccccn12` [TRAZODONE] came in with a bioavailability greater than 80%. This molecule gave a logD in the series “physchem [2]” (pH 6.5, logD) of 1.47. In addition, in series [3], the “delta logD” value is -0.33. Moreover, the pKa in the series “physchem [4]” turned out to be 6.7.
